Source: ChEMBL document CHEMBL3112480, “γ-Alkylidene-γ-lactones and isobutylpyrrol-2(5H)-ones analogues to rubrolides as inhibitors of biofilm formation by gram-positive and gram-negative bacteria” (Bioorg Med Chem Lett, 2014)
Values after ≈ are worked out from the molar mass of the structure shown.

Key:
[1] = tested on: Staphylococcus epidermidis; assay: Antibacterial activity against Staphylococcus epidermidis ATCC 35547 assessed as effect on planktonic growth at 0.68 ug/ml after 20 hrs relative to control; assay type: functional
[2] = tested on: Staphylococcus epidermidis; assay: Antibacterial activity against Staphylococcus epidermidis ATCC 35547 assessed as effect on planktonic growth at 0.34 ug/ml after 20 hrs relative to control; assay type: functional
[3] = tested on: Pseudomonas aeruginosa; assay: Antibacterial activity against Pseudomonas aeruginosa ATCC 27853 assessed as effect on planktonic growth at 43.8 ug/ml after 20 hrs relative to control; assay type: functional
[4] = tested on: Streptococcus mutans; assay: Antibacterial activity against Streptococcus mutans ATCC 25175 assessed as effect on planktonic growth at 87.5 ug/ml after 20 hrs relative to control; assay type: functional
[5] = tested on: Staphylococcus epidermidis; assay: Antibacterial activity against Staphylococcus epidermidis ATCC 35547 assessed as effect on planktonic growth at 0.17 ug/ml after 20 hrs relative to control; assay type: functional
[6] = tested on: Pseudomonas aeruginosa; assay: Antibacterial activity against Pseudomonas aeruginosa ATCC 27853 assessed as effect on planktonic growth at 87.5 ug/ml after 20 hrs relative to control; assay type: functional
[7] = tested on: Staphylococcus aureus; assay: Antibacterial activity against Staphylococcus aureus ATCC 25923 assessed as effect on planktonic growth at 2.73 ug/ml after 20 hrs relative to control; assay type: functional
[8] = tested on: Streptococcus mutans; assay: Antibacterial activity against Streptococcus mutans ATCC 25175 assessed as effect on planktonic growth at 0.17 ug/ml after 20 hrs relative to control; assay type: functional
[9] = tested on: Pseudomonas aeruginosa; assay: Antibacterial activity against Pseudomonas aeruginosa ATCC 27853 assessed as effect on planktonic growth at 2.73 ug/ml after 20 hrs relative to control; assay type: functional
[10] = tested on: Streptococcus mutans; assay: Antibacterial activity against Streptococcus mutans ATCC 25175 assessed as effect on planktonic growth at 1.37 ug/ml after 20 hrs relative to control; assay type: functional
[11] = tested on: Staphylococcus aureus; assay: Antibacterial activity against Staphylococcus aureus ATCC 25923 assessed as effect on planktonic growth at 43.8 ug/ml after 20 hrs relative to control; assay type: functional
[12] = tested on: Staphylococcus aureus; assay: Antibacterial activity against Staphylococcus aureus ATCC 25923 assessed as effect on planktonic growth at 87.5 ug/ml after 20 hrs relative to control; assay type: functional
[13] = tested on: Staphylococcus aureus; assay: Antibacterial activity against Staphylococcus aureus ATCC 25923 assessed as effect on planktonic growth at 0.17 ug/ml after 20 hrs relative to control; assay type: functional
[14] = tested on: Staphylococcus aureus; assay: Antibacterial activity against Staphylococcus aureus ATCC 25923 assessed as effect on planktonic growth at 0.68 ug/ml after 20 hrs relative to control; assay type: functional
[15] = tested on: Staphylococcus aureus; assay: Antibacterial activity against Staphylococcus aureus ATCC 25923 assessed as effect on planktonic growth at 1.37 ug/ml after 20 hrs relative to control; assay type: functional
[16] = tested on: Pseudomonas aeruginosa; assay: Antibacterial activity against Pseudomonas aeruginosa ATCC 27853 assessed as effect on planktonic growth at 5.5 ug/ml after 20 hrs relative to control; assay type: functional
[17] = tested on: Streptococcus mutans; assay: Antibacterial activity against Streptococcus mutans ATCC 25175 assessed as effect on planktonic growth at 0.68 ug/ml after 20 hrs relative to control; assay type: functional
[18] = tested on: Staphylococcus epidermidis; assay: Antibacterial activity against Staphylococcus epidermidis ATCC 35547 assessed as inhibition of biofilm formation after 20 hrs by crystal-violet staining method; assay type: functional, organism-based; conditions: for IC50: ATCC 35547, 20 h
[19] = tested on: Staphylococcus epidermidis; assay: Antibacterial activity against Staphylococcus epidermidis ATCC 35547 assessed as effect on planktonic growth at 2.73 ug/ml after 20 hrs relative to control; assay type: functional
[20] = tested on: Staphylococcus aureus; assay: Antibacterial activity against Staphylococcus aureus ATCC 25923 assessed as effect on planktonic growth at 21.9 ug/ml after 20 hrs relative to control; assay type: functional
[21] = tested on: Streptococcus mutans; assay: Antibacterial activity against Streptococcus mutans ATCC 25175 assessed as effect on planktonic growth at 21.9 ug/ml after 20 hrs relative to control; assay type: functional
[22] = tested on: Pseudomonas aeruginosa; assay: Antibacterial activity against Pseudomonas aeruginosa ATCC 27853 assessed as inhibition of biofilm formation after 20 hrs by crystal-violet staining method; assay type: functional, organism-based
[23] = tested on: Staphylococcus epidermidis; assay: Antibacterial activity against Staphylococcus epidermidis ATCC 35547 assessed as effect on planktonic growth at 43.8 ug/ml after 20 hrs relative to control; assay type: functional
[24] = tested on: Staphylococcus epidermidis; assay: Antibacterial activity against Staphylococcus epidermidis ATCC 35547 assessed as effect on planktonic growth at 87.5 ug/ml after 20 hrs relative to control; assay type: functional
[25] = tested on: Staphylococcus epidermidis; assay: Antibacterial activity against Staphylococcus epidermidis ATCC 35547 assessed as effect on planktonic growth at 10.9 ug/ml after 20 hrs relative to control; assay type: functional
[26] = tested on: Pseudomonas aeruginosa; assay: Antibacterial activity against Pseudomonas aeruginosa ATCC 27853 assessed as effect on planktonic growth at 0.68 ug/ml after 20 hrs relative to control; assay type: functional
[27] = tested on: Staphylococcus epidermidis; assay: Antibacterial activity against Staphylococcus epidermidis ATCC 35547 assessed as effect on planktonic growth at 21.9 ug/ml after 20 hrs relative to control; assay type: functional
[28] = tested on: Streptococcus mutans; assay: Antibacterial activity against Streptococcus mutans ATCC 25175 assessed as effect on planktonic growth at 2.73 ug/ml after 20 hrs relative to control; assay type: functional
[29] = tested on: Pseudomonas aeruginosa; assay: Antibacterial activity against Pseudomonas aeruginosa ATCC 27853 assessed as effect on planktonic growth at 21.9 ug/ml after 20 hrs relative to control; assay type: functional
[30] = tested on: Pseudomonas aeruginosa; assay: Antibacterial activity against Pseudomonas aeruginosa ATCC 27853 assessed as effect on planktonic growth at 0.17 ug/ml after 20 hrs relative to control; assay type: functional
[31] = tested on: Streptococcus mutans; assay: Antibacterial activity against Streptococcus mutans ATCC 25175 assessed as effect on planktonic growth at 10.9 ug/ml after 20 hrs relative to control; assay type: functional
[32] = tested on: Streptococcus mutans; assay: Antibacterial activity against Streptococcus mutans ATCC 25175 assessed as effect on planktonic growth at 0.34 ug/ml after 20 hrs relative to control; assay type: functional
[33] = tested on: Staphylococcus aureus; assay: Antibacterial activity against Staphylococcus aureus ATCC 25923 assessed as effect on planktonic growth at 0.34 ug/ml after 20 hrs relative to control; assay type: functional
[34] = tested on: Pseudomonas aeruginosa; assay: Antibacterial activity against Pseudomonas aeruginosa ATCC 27853 assessed as effect on planktonic growth at 0.34 ug/ml after 20 hrs relative to control; assay type: functional
[35] = tested on: Pseudomonas aeruginosa; assay: Antibacterial activity against Pseudomonas aeruginosa ATCC 27853 assessed as effect on planktonic growth at 10.9 ug/ml after 20 hrs relative to control; assay type: functional
[36] = tested on: Staphylococcus aureus; assay: Antibacterial activity against Staphylococcus aureus ATCC 25923 assessed as effect on planktonic growth at 10.9 ug/ml after 20 hrs relative to control; assay type: functional
[37] = tested on: Staphylococcus epidermidis; assay: Antibacterial activity against Staphylococcus epidermidis ATCC 35547 assessed as effect on planktonic growth at 1.37 ug/ml after 20 hrs relative to control; assay type: functional
[38] = tested on: Streptococcus mutans; assay: Antibacterial activity against Streptococcus mutans ATCC 25175 assessed as effect on planktonic growth at 43.8 ug/ml after 20 hrs relative to control; assay type: functional
[39] = tested on: Streptococcus mutans; assay: Antibacterial activity against Streptococcus mutans ATCC 25175 assessed as effect on planktonic growth at 5.5 ug/ml after 20 hrs relative to control; assay type: functional
[40] = tested on: Staphylococcus epidermidis; assay: Antibacterial activity against Staphylococcus epidermidis ATCC 35547 assessed as effect on planktonic growth at 5.5 ug/ml after 20 hrs relative to control; assay type: functional
[41] = tested on: Staphylococcus aureus; assay: Antibacterial activity against Staphylococcus aureus ATCC 25923 assessed as effect on planktonic growth at 5.5 ug/ml after 20 hrs relative to control; assay type: functional
[42] = tested on: Pseudomonas aeruginosa; assay: Antibacterial activity against Pseudomonas aeruginosa ATCC 27853 assessed as effect on planktonic growth at 1.37 ug/ml after 20 hrs relative to control; assay type: functional

COc1ccc(Br)cc1C1=C(Br)C(=O)N(CC(C)C)/C1=C/c1ccc(Br)cc1 was tested, and the Activity [1] was -2.1%, the Activity [2] was 0.4% and the Activity [3] was -6.2%. It also gave an Activity [4] of 22.8%, an Activity [5] of -3.3% and an Activity [6] of -8.2%. For the same molecule, the Activity [7] was 15.4%, the Activity [8] was 13.9% and the Activity [9] was -17.1%. The Activity [10] was -3.3%, the Activity [11] was 36.6% and the Activity [12] was 68.6%. The Activity [13] was 2.2%, the Activity [14] was 18.5% and the Activity [15] was 9.4%. The Activity [16] was -16.1%, the Activity [17] was 14.4% and the inhibition [18] was “Dose-dependent effect”. It also gave an IC50 [18] greater than 87.5 µg/mL, an Activity [19] of -5.7% and an Activity [20] of 27.8%. The Activity [21] was 6%, the inhibition [22] was “Dose-dependent effect” and the IC50 ([22]; ATCC 27853, 20 h) was 2.5 µg/mL (≈ 4.39 µM). It also gave an Activity [23] of 7.7%, an Activity [24] of 11.4% and an Activity [25] of 1%. It also gave an Activity [26] of -5.5%, an Activity [27] of -1% and an Activity [28] of 12%. The Activity [29] was -11.7%, the Activity [30] was 0.9% and the Activity [31] was 7.6%. The Activity [32] was 12%, the Activity [33] was 6.3% and the Activity [34] was 2.6%. It also gave an Activity [35] of -15.5%, an Activity [36] of 16.8% and an Activity [37] of -1.2%. It also gave an Activity [38] of 9%, an Activity [39] of 10.1% and an Activity [40] of 2.7%. For the same molecule, the Activity [41] was 14.9% and the Activity [42] was -19.3%.

COc1ccc(C)cc1C1=C(Br)C(=O)N(CC(C)C)C1(O)Cc1cccc(Cl)c1 (configuration not stated) showed an Activity [1] of 1.2%, an Activity [2] of 2.4% and an Activity [3] of -10.6%. The Activity [4] was -31.2%, the Activity [5] was 3.5% and the Activity [6] was -11.6%. For the same molecule, the Activity [7] was 12.8%, the Activity [8] was 3% and the Activity [9] was -7%. The Activity [10] was -4.8%, the Activity [11] was -5% and the Activity [12] was -12.1%. For the same molecule, the Activity [13] was 6.7%, the Activity [14] was 10.8% and the Activity [15] was 9.7%. For the same molecule, the Activity [16] was -8.6%, the Activity [17] was 1.1% and the inhibition [18] was “Dose-dependent effect”. For the same molecule, the IC50 [18] was greater than 87.5 µg/mL, the Activity [19] was 1.9% and the Activity [20] was 3.4%. The Activity [21] was -12.5%, the inhibition [22] was “Dose-dependent effect” and the Activity [23] was -28.5%. The Activity [24] was -7.8%, the Activity [25] was -17.2% and the Activity [26] was -2.6%. For the same molecule, the Activity [27] was -7.3%, the Activity [28] was -2.9% and the Activity [29] was -7.9%. For the same molecule, the Activity [30] was -1.6%, the Activity [31] was -7.6% and the Activity [32] was 2.4%. For the same molecule, the Activity [33] was 11.4%, the Activity [34] was -1.3% and the Activity [35] was -9.6%. The Activity [36] was 4.3%, the Activity [37] was 0.9% and the Activity [38] was -21%. For the same molecule, the Activity [39] was -11%, the Activity [40] was 12% and the Activity [41] was 5.4%. The Activity [42] was -3.4%.
